Assay results published in patent US20240228390A1, “Chelated Nutrients and Methods of Use Thereof” (ICL AMERICA DO SUL S.A., priority 2021, published 2024).

Test: Stability testing at different pH levels
Format: physicochemical
Conditions: Chelate A (glutamic acid + malic acid)
Description: Stability testing at different PH levels was performed and turning to Table 1, there is a large range of the chelates' stability, wherein the structure of the chelates can be considered stable.

Substance: [Zn(Glu)(Mal)]2Na [Chelate A Zn^2+]
- Stability pH of the chelates, Acid medium (acid limit of stable pH range): 0.20
- Stability pH of the chelates, Alkaline medium (alkaline limit of stable pH range): 11.30
